{"source": "paper PMC4501119", "about": "“Cholestenoic acid, an endogenous cholesterol metabolite, is a potent γ-secretase modulator” (Molecular Neurodegeneration, 2015)", "key": {"[1]": {"experiment": "Plasma CA concentration after IP injection (HPLC-MS-MS)", "type": "in vivo, mouse (C57BL/6)", "conditions": "mice", "experimental": "(§1) 25(R)-CA powder was initially dissolved in DMSO (<4.5 % in the final mixture) and then combined with polyethylene glycol (15)-hydroxystearate (Solutol), ethanol, and water at a ratio of (15:10:75). One molar equivalent of sodium hydroxide was added to the mixture. We performed CA intraperitoneal (IP) injections to wild-type mice (C57BL/6 or CF-1). The mice were injected with 25(R)-CA on the right side of the abdomen. The injections have been performed with various time points (30 min, 1 h, 2 h, and 3 h) and with multiple doses (30 mg per kg (mg/kg), 60 mg/kg, 75 mg/kg and 100 mg/kg). The number of each cohort is 6–8. We used 30 mg/kg of CA for the time-course experiments, and for the dose–response experiments the end-point was set at 30 min. The brains and serum are harvested and frozen for brain Aβ extraction.\nThe plasma samples were extracted using published solid phase extraction method (72) and analyzed by HPLC-MS-MS. Briefly, 0.1 ml mouse plasma samples after adding 20 μl of D3-CA as internal standard were preconditioned with 1.4 ml of ethanol (99.9 %), and 0.5 ml of water, centrifuged at 4 °C, 4000 rpm for 10 min. This solution was then loaded onto a Sep-Pak tC18 (SPE1) solid phase extraction cartridge which were preconditioned with 70 % ethanol. […]"}, "[2]": {"tested_on": "brain mAβ42, mAβ38 and total mAβ", "experiment": "Brain Aβ levels after intraperitoneal injection in wild type mice", "type": "in vivo, mouse (C57BL/6 or CF-1)", "experimental": "as §1\nThe mouse brains were harvested at the age of 3 months. The brains were weighed and recorded. The Diethylamine/Sodium Chloride (DEA/NaCl) extraction buffer (0.4 % DEA) was added to each sample and homogenized using a sonicator. The samples were transferred to a poly-carbonate centrifuge tube and spun down at 50,000xg for 30 min at 4 °C. The supernatant was loaded on the vacuum manifold with the appropriate number of HLB Oasis columns. The samples were loaded on the conditioned column, filtered, and eluted using prepared elution buffer (90 % Methanol, 2 % NH4OH). The eluates are concentrated using the Thermo-Savant SpeedVac concentrator for a minimum of 2 h at 55 °C with radiant heat. The concentrated samples are reconstituted in a blocking buffer (0.67 % Bovine serum albumin (BSA)) at the appropriate volume.\nMonoclonal antibodies to Aβ were generated by the Mayo Clinic Immunology Core facilities (Jacksonville, FL, USA). […] Total Aβ level was determined by capture with Ab5 and detected with horseradish peroxidase (HRP)-conjugated 4G8 (a monoclonal antibody against Aβ17-24; Covance, Waltham, MA, USA) with the other Aβ peptides detected with HRP-conjugated Ab5. […] Following these steps, the Aβ is monomeric, as determined by size-exclusion chromatography."}}, "note": "“And” between values parts separate entries of the source, which are not always exact repeats. Equal entries are not always repeated. “Also recorded” adds a separate entry of the source."}
{"smiles": "CC(CCC[C@@H](C)C(=O)O)[C@H]1CCC2C3CC=C4C[C@@H](O)CC[C@]4(C)C3CC[C@@]21C", "note": "(stereo partly drawn) [Cmpd 2a, 25(R)-cholestenoic acid]", "values": [{"measurement": "plasma CA concentration", "setting": "[1]; 30 mg/kg IP, listed as CA", "result": "200 ng/mL and ~ 500 nM"}, {"measurement": "concentration at 30 min", "setting": "[1]; C57BL/6, mouse, plasma, intraperitoneal, 100 mg/kg IP", "result": "4000 ng/mL and ~10 µM"}, {"measurement": "brain Aβ levels", "setting": "[2]; 30 mg/kg IP, brains harvested after 30 min, 1, 2 and 3 h", "result": "no changes"}, {"measurement": "brain mAβ42, mAβ38 and total mAβ", "setting": "[2]; 30, 60, 75, 100 mg/kg IP, vs vehicle-injected control, listed as CA", "result": "No significant effects; also recorded: did not show acute effects; also recorded: did not affect"}]}
